Assay results published in patent US10857105B2, “Compounds and compositions for intracellular delivery of therapeutic agents” (ModernaTX, Inc., priority 2017, dated 2020).

What was measured:
Sprague Dawley rat [1] = settings: 0.3 mg/kg dose mRNA; cited from earlier work
Sprague Dawley rat [2] = assay: One-month toxicological evaluation with weekly dosing in rat; assay type: in vivo
Description: Serum ALT and AST levels: Samples were analyzed using a Modular Analytics analyzer.
Next, tolerability and safety of the compound 18-based LNPs in vivo was tested. A full toxicological evaluation of compound 18-based LNPs in both Sprague Dawley rat and cynomolgus monkey was performed using a standard one-month study with weekly dosing at three dose levels in each species. Rats were dosed at 0.05, 0.5, and 2 mg/kg and a non-human primates was dosed at 0.1, 0.3, and 1 mg/kg. LNP-related toxicities associated with MC3-based LNP systems are generally associated with immunological (cytokine and complement activation) and hepatic injury. […] FIGS. 32 and 33 highlight the day 30 levels of alanine transferase (ALT, FIG. 32A) and aspartate aminotransferase (AST, FIG. 32B), two indicators of liver damage.

human hepatocytes = assay: Metabolite profiling of Compound 18 incubated with human hepatocytes; assay type: in vitro ADME; design: key: +: Detected; ND: Not detected; settings: Compound 18 (10 μM)
Description: (§1) In vitro metabolite identification studies using compound 18 were also performed. […] The disappearance of parent compound 18 and the primary metabolite, compound 166, from mouse liver tissue was measured after dosing 0.25 mg/kg mRNA on days 1, 8, and 15.
The results of metabolic profiling and characterization for compound 18 incubated with human hepatocytes or human plasma are summarized in Tables 41 and 42, respectively.

mice = assay: hEPO expression on repeat intravenous dosing of hEPO mRNA LNPs in mice; assay type: in vivo; settings: 0.5 mg/kg hEPO mRNA intravenously to mice
Description: Blood collection and analysis for hEPO. Blood was collected from mice or rats via the tail vein and hEPO concentrations were determined using a hEPO ELISA assay.
Repeat dosing of mRNA in an MC3-based LNP for a therapeutic indication would be expected to lead to accumulation of MC3 in tissues, based on the measured half-life. Therefore it was investigated whether the favorable single dose pharmacokinetics of compound 18 were maintained with weekly dosing. Clearance of MC3 and compound 18 from multiple mouse tissues was measured after dosing 0.05 mg/kg mRNA on day 1, 8 and 15 (FIG. 30A). Following dosing with MC3 LNPs, lipid was detected in liver, spleen, plasma, kidney, heart and lung; with liver and spleen containing the largest concentrations (FIG. 30A, for full panel of tissues see FIG. 35A). […] Compound 18 was also detected in plasma, lung, and kidney, but not in heart (FIG. 35A).

[3] = One month toxicology evaluation in cynomolgus monkeys (serum ALT, AST, C5b9, MCP-1); assay type: in vivo; settings: 1 mg/kg mRNA
Description: FIGS. 32A-32C are a series of graphs summarizing the results of a one month toxicology evaluation in rat and non-human primate. PBS (phosphate buffered saline) was used as a control. […] The serum levels were measured 24 post fifth dose (n=4). […] The serum levels were measured 24 post fifth dose (n=4).
FIGS. 33A and 33B are a pair of graphs summarizing the results of a one month toxicology evaluation in rats and non-human primates.
FIG. 38 is a graph showing mRNA levels in NHP after repeat dosing over the course of 29 days.

cynomolgus monkeys = assay: Human IgG (anti-influenza A antibody mRNA) expression in non-human primates; assay type: in vivo, cynomolgus monkey; settings: NHP, single dose
Description: NHP studies: Nonhuman primate studies were conducted using naïve cynomolgus monkeys (cynos), 2-4 years old, weighing 2-6 kg. No treatment randomization or blinding methods were used for any of the animal studies. Sample sizes were determined by the resource equation method. For injection, mRNA-LNPs in phosphate buffered saline (PBS) were administered by 60-minute intravenous infusion using a temporary indwelling catheter inserted in a peripheral vein.
Human IgG analysis for NHP samples: A 10.0-μL matrix aliquot is transferred to a low protein binding 96-well plate. A 25.0-μL aliquot of the working internal standard solution is added, and the sample aliquot is diluted with loading buffer. […] The final extract is analyzed via HPLC with MS/MS detection using positive ion electrospray. A linear, 1/concentration^2 weighted, least-squares regression algorithm is used to quantitate unknown samples.
NHP more closely approximates clinical responses for LNP-based systems than rodent (DeRosa, F., Guild, B., Karve, S., Smith, L., Love, K., Dorkin, J R., et. al. Therapeutic efficacy in a hemophilia B model using a biosynthetic mRNA liver depot system. Gene Ther. 2016, 23, 699-707, the contents of which are incorporated herein by reference in their entireties). […] A separate study evaluated the lipid tissue accumulation in NHP after a single dose.

[4] = Metabolite identification of Compound 18 incubated with human plasma; assay type: in vitro ADME; design: key to Detection at 0 min / Detection at 30 min / Detection at 60 min / Detection at 90 min: +: Detected; ND: Not detected
Description: Metabolite Identification: Compound 18 (10 μM) was incubated with human plasma (29.0 mg protein/incubation) in incubation mixtures (200 μL final incubation volume) that consisted of 50/50 v/v neat plasma (undiluted)/substrate solution in 50 mM phosphate buffer, pH 7.4). The plasma was obtained from male and female donors and contained K2EDTA anticoagulant. Reactions were started by addition of the substrate solution to human plasma and were stopped at four designated time points (0, 30, 60 and 90 min) by the addition of 600 μL of stop reagent (acetonitrile). Stopped incubation samples were centrifuged (e.g., 10,000×g for 10 min at 10° C.) and the supernatant fractions were analyzed by LC-MS/MS to characterize the metabolites formed from compound 18. Additional incubations were performed with the positive control procaine […] to establish competency of the test system. Samples were analyzed by LC-MS/MS.
as §1

[5] = 60 min infusion, dosed weekly, after fifth dose (n=4)

Row | SMILES | ALT, AST and pathology of MC3-based mRNA LNP (Sprague Dawley rat [1]) | ALT and AST levels, day 30, relative to PBS control (Sprague Dawley rat [2]; any dose level) | toxicological findings (Sprague Dawley rat [2]; weekly dosing one month, 0.05, 0.5 and 2 mg/kg) | Detection at 0 min (human hepatocytes; human hepatocytes (1 million cells/mL), 0 min) | Detection at 60 min (human hepatocytes; human hepatocytes, 60 min) | Detection at 120 min (human hepatocytes; human hepatocytes, 120 min) | Detection at 240 min (human hepatocytes; human hepatocytes, 240 min) | hEPO expression on repeat dosing (mice) | Serum alanine aminotransferase levels [3, 5] | Serum aspartate aminotransferase levels [3, 5] | MCP-1 serum concentration ([3]; day 1 and day 29 (n=4)) | increase in expression of anti-human IgG influenza A antibody compared to an MC3 LNP (cynomolgus monkeys) | Detection at 0 min ([4]; Compound 18 (10 μM), human plasma (29.0 mg protein/incubation), 0 min) | Detection at 30 min ([4]; Compound 18 (10 μM), human plasma, 30 min) | Detection at 60 min ([4]; Compound 18 (10 μM), human plasma, 60 min) | Detection at 90 min ([4]; Compound 18 (10 μM), human plasma, 90 min) | initial step of metabolism ([4]; in vitro metabolite identification studies)
1 | CCCCCC=CCC=CCCCCCCCCC(CCCCCCCCC=CCC=CCCCCC)OC(=O)CCCN(C)C (centres unmarked) [MC3, heptatriaconta-6,9,28,31-tetraen-19-yl 4-(dimethylamino)butanoate, reference compound] | ALT and AST were elevated and pathology showed evidence of necrosis |  |  |  |  |  |  |  |  |  |  |  |  |  |  |  | 
2 | CCCCCCCCCOC(=O)CCCCCCCN(CCO)CCCCCCCC(=O)OC(CCCCCCCC)CCCCCCCC [Compound 18, Heptadecan-9-yl 8-((2-hydroxyethyl)(8-(nonyloxy)-8-oxooctyl)amino)octanoate] |  | minimal elevation | no adverse findings | + | + | + | + | Consistent levels of expression | No statistical difference between PBS pre-dose and day 30 levels | No statistical difference between PBS pre-dose and day 30 levels | no statistical difference between PBS and Compound 18 at any other timepoint | 5 fold | + | + | + | + | hydrolysis of the primary ester
